# Laboratory results from patent US20080118943A1 (priority 2005, published 2008).
# Legend:
# [1] = system: folate overproducing L. plantarum strains; assay: Growth rate of folate overproducing L. plantarum strains (pNZ7019, pNZ7021) on modified CDM with methotrexate; type: cell-based, Lactobacillus plantarum; settings: 2.5 mg/L MTX
# Protocol: (§1) Wild type L. plantarum WCFS1 strains and its derivatives were grown at 37° C. on Chemically Defined Media (CDM), containing 19 g/L β-phosphoglycerate (6) or modified CDM. In this modified CDM, glycine, inosine, orotic acid, thymidine, guanine, adenine, uracil and xantine were omitted from the normal CDM. Additionally […] chloroamphenicol was added to all the media used. Methotrexate (Sigma, […]) was added to both types of CDM, in concentrations ranging from 0 to 10 mg/l.
# (§2) Microtiter plates were used to determine the growth rate of the three L. plantarum strains harbouring the different vectors. The growth of the three strains was monitored in a 96 well microtiter plate for 35 hours using a spectrophotometer (SPECTRAmax®, Molecular Devices, Sunnyvale, Calif., USA). The growth was tested on the two types of media, and each construct was analyzed in triplicate on both media for the following MTX concentrations: 0, 0.3125, 0.625, 1.25 and 2.5 mg/L.
# [2] = system: wild type L. plantarum WCFS1; assay: Growth rate of wild type L. plantarum on modified CDM (lacking folate dependent metabolites) with methotrexate; type: cell-based, Lactobacillus plantarum; settings: for growth inhibition of the wild type strain: modified CDM
# Protocol: as §1, §2
# [3] = system: L. plantarum strains (wild type, pNZ7019, pNZ7021); assay: Growth rate of L. plantarum strains on CDM with folate dependent metabolites and methotrexate; type: cell-based, Lactobacillus plantarum; settings: 0 to 2.5 mg/L MTX
# Protocol: as §1, §2
# L. lactis = settings: cited from earlier work
Structure (SMILES),growth of the folate overproducing strains [1],growth inhibition of the wild type strain ([2]; 2.5 mg/L MTX),"growth rate (μ) of the wild type ([2]; 1.25, 1.5, 2.0 and 2.5 mg/l MTX, medium lacking folate dependent metabolites) [h⁻¹]",growth inhibition of the wild type strain ([2]; between 0 and 2.5 mg/L MTX),growth inhibition in the presence of folate dependent metabolites [3],sensitivity to antifolate (L. lactis)
"CN(Cc1cnc2nc(N)nc(N)c2n1)c1ccc(C(=O)N[C@@H](CCC(=O)O)C(=O)O)cc1 [MTX, methotrexate]",grew well,complete growth inhibition,< 0.05,dose dependent growth inhibition,none of the tested strains was significantly inhibited,insensitive
COc1cc(Cc2cnc(N)nc2N)cc(OC)c1OC [trimethoprim],,,,,,insensitive
